Laboratory results as given in patent US20060280687A1, “Compounds for tissue imaging and methods of use thereof” (priority 2005, published 2006).

Tests used:
[1] = Stability on in vitro incubation in mouse serum, HPLC analysis; type: in vitro ADME; settings: 30 minutes incubation in mouse serum
Description: The stability of the Cy5.5-2DG compound was evaluated by incubating the compound in vitro in mouse serum and analyzing the serum as a function of time by high pressure liquid chromatography (HPLC). […] The main peak is observed at 15.2 minutes.

[2] = tested on: human glioblastoma cells (U87MG); test: In vitro cell uptake by fluorescence microscopy, U87MG; type: cell-based; settings: 100 nM, 1 hour
Description: Human glioblastoma U87MG cells were cultured in Dulbecco's modified Eagle medium (DMEM, Invitrogen Life Technologies, Carlsbad, Calif.), high glucose plus 10% fetal bovine serum (FBS), and 1% penicillin-streptomycin. The cells were maintained in a humidified atmosphere of 5% CO2 at 37° C., with the medium changed every other day. A confluent monolayer was detached with trypsin and dissociated into a single cell suspension for further cell culture.
For fluorescence microscopic studies, 1 M cells were cultured on 35 mm MatTek glass bottom culture dishes (Cat #: P35G-0-14-C, Ashland, Mas.). […] The fluorescence signal of the cells was recorded using an Axiovert 200M fluorescence microscope (Carl Zeiss MicroImaging, Inc., Thornwood, N.Y.) equipped with a Cy5.5 filter set (Exciter, HQ 650/20 nm; Emitter, HQ 675/35 nm). An AttoArc HBO 100 W microscopic illuminator was used as a light source for fluorescence excitation. Images were taken using a thermoelectrically cooled charge-coupled device (CCD) (Micromax, model RTE/CCD-576, Princeton Instruments Inc., Trenton, N.J.) and analyzed using WinView Software version 1.6.2 (Princeton Instruments Inc., Trenton, N.J.)
Tumor uptake of the Cy5.5-2DG compound into human glioblastoma cells (U87MG) was determined by incubating the cells in vitro with the compound for one hour at either 37° C. or at 4° C., as described in Example 2. […]

[3] = tested on: human glioblastoma xenograft (U87MG); test: In vivo fluorescence imaging of mice bearing a U87MG glioblastoma xenograft
Description: All animal studies were carried out in compliance with federal and local institutional rules for the conduct of animal experimentation. Female athymic nude mice (nu/nu, 10-12 weeks old), obtained from Charles River Laboratories (Boston, Mas.), were inoculated subcutaneously in the right foreleg with 5×10^6 U87MG cultured glioblastoma cells suspended in 100 μL of PBS. Two to three weeks after inoculation, when the tumors reached 0.4-0.6 cm in diameter, the tumor bearing mice were subject to in vivo imaging studies.
In vivo fluorescence imaging was performed with a cooled charged-coupled device (CCD) camera (Xenogen IVIS™ 200 small animal imaging system, Xenogen, Alameda, Calif.). A Cy5.5 filter set was used for acquiring Cy5.5-2DG fluorescence in vivo. Identical illumination settings (lamp voltage, filters, f/stop, field of views, binning) were used for acquiring all images, and fluorescence emission was normalized to photons per second per centimeter squared per steradian (p/s/cm^2/sr). Images were acquired and analyzed using Living Image® D2.5 software (Xenogen).
Mice were injected via tail vein with 50 or 500 pmol Cy5.5-2DG and subjected to optical imaging at various time points post injection with a sampling of multiple angles while remaining sedated. […]
All the data are given as means ± SD of n independent measurements. Statistical analysis was performed using a Student's t-test. Statistical significance was assigned for P values <0.05. For determining tumor contrast, mean fluorescence intensities of the tumor area at the right shoulder of the animal (T) and of the corresponding area at the left shoulder (N) were calculated by means of the region of interest function of Living Image software(Xenogen) integrated with Igor (Wavemetrics, Lake Oswego, Oreg.). Dividing T by N yielded the contrast between tumor tissue and normal tissue.
In vivo studies were done to evaluate performance of the Cy5.5-2DG compound in tumor-bearing subjects. As described in Example 3, mice were inoculated in the right foreleg with 5×10^6 U87MG cultured glioblastoma cells. Two to three weeks after inoculation, when the tumors reached 0.4-0.6 cm in diameter, the tumor-bearing mice were used for in vivo imaging studies.
In one study, the mice received 500 pmol of Cy5.5-2DG compound, injected via tail vein. At various times post injection of the probe, an animal was sedated and then imaged using a small animal imaging system available under the trade designation IVIS® (Xenogen, Alameda, Calif.). In other studies described below with respect to FIGS. 22-23, imaging was also done using an imaging system from ART eXplore Optix (ART Inc./GE Healthcare) and compared to imaging using the imaging system IVIS®. FIGS. 10A-10M are images generated with the IVIS® system of sedated, live mice in the prone position as a function of time after administration of 500 pmol of Cy5.5-2DG. […] At 1 hour (FIG. 10B), 2 hours (FIG. 10C), 4 hours (FIG. 10D), and 5 hours (FIG. 10E), the probe progressively clears from the body and begins to localize in the tumor in the right foreleg. In fact, by two hours post injection, accumulation of the compound in the tumor is readily apparent in the image (FIG. 10C). […] The presence of the probe in the tumor is apparent in all the images, long after the probe has cleared from healthy tissue.

[4] = tested on: human melanoma (A375M) xenograft; test: In vivo fluorescence imaging of mice bearing a human melanoma (A375M) xenograft; settings: n=3
Description: Another study was conducted using mice (n=3) bearing a human melanoma (A375M) xenograft. When the tumor reached […] diameter, the mice received via tail vein injection 500 pmol of Cy5.5-2DG compound.

[5] = tested on: C6 rat glioma cells; test: In vitro cell uptake by fluorescence microscopy, C6; type: cell-based; settings: 1 hour
Description: (§1) For fluorescence microscopic studies, 1 M cells were cultured on 35 mm MatTek glass bottom culture dishes (Cat #: P35G-0-14-C, Ashland, Mas.). After 24 hours, the cells were washed with phosphate-buffered saline (PBS) and then incubated at 37° C. or 4° C. in the presence of 100 nM Cy5.5-2DG for 1 hour. Afterwards, cells were washed in 1 mL ice-cold PBS. The fluorescence signal of the cells was recorded using an Axiovert 200M fluorescence microscope (Carl Zeiss MicroImaging, Inc., Thornwood, N.Y.) equipped with a Cy5.5 filter set (Exciter, HQ 650/20 nm; Emitter, HQ 675/35 nm). An AttoArc HBO 100 W microscopic illuminator was used as a light source for fluorescence excitation. Images were taken using a thermoelectrically cooled charge-coupled device (CCD) (Micromax, model RTE/CCD-576, Princeton Instruments Inc., Trenton, N.J.) and analyzed using WinView Software version 1.6.2 (Princeton Instruments Inc., Trenton, N.J.)
Additional in vitro studies were conducted with several other tumor cells lines, including C6 rat glioma cells. Following the procedure set forth in Example 2, the glioma cells were incubated for one hour at 37° C. or at 4° C., and light images and fluorescent images were taken. The light images are shown in FIGS. 6A and 6B and the fluorescent images in FIGS. 6C and 6D. Both light images show cells in the image field.

[6] = tested on: MDA-MB-435 human breast carcinoma cells; test: In vitro cell uptake by fluorescence microscopy, MDA-MB-435; type: cell-based; settings: 1 hour
Description: as §1
FIGS. 9A-9D illustrate the results of a similar study using MDA-MB-435 human breast carcinoma cells. Incubation at 37° C. […] (FIGS. 9B and 9D).

[7] = tested on: A375M human melanoma cells; test: In vitro cell uptake by fluorescence microscopy, A375M; type: cell-based; settings: 1 hour
Description: as §1
The light images (FIGS. 7A and 7B) show cells in the optical field.

[8] = UV absorption and fluorescence spectra; type: physicochemical
Description: The crude product was then injected onto a semi-preparative HPLC column, where the flow rate was 3 mL/min, with the mobile phase starting from 5% solvent B (0.1%TFA in CH3CN) and 95% solvent A (0.1%TFA in water) (0-3 min) to 65% solvent B and 35% solvent A at 33 min, then going to 85% solvent B and 15% solvent A (33-36 min), maintaining this solvent composition for another three minutes (36-39 min), and returning to initial solvent composition by 42 min. Product elution was monitored at both 218 and 590 nm using a UV-Vis detector. The product peak was collected, lyophilized, and identified by MALDI-TOF-MS. The chemical purity of product was determined by analytical HPLC (same gradient as used for semi-preparative HPLC; flow rate: 1.0 ml/min). The product was re-dissolved in saline at a concentration of 1 mg/mL, and stored in the dark at −80° C. until use. The absorbance spectrum of Cy5.5-2DG was rerecorded on an Agilent 8453 UV-visible ChemStation (Agilent Technologies, Wilmington, DE), and fluorescence spectrum of Cy5.5-2DG was measured on a Fluoromax-3 fluorophotometer (JOBIN YVON/HORIBA, Edison, N.J.).

[9] = tested on: murine melanoma cells B16F10; test: In vitro cell uptake by fluorescence microscopy, B16F10; type: cell-based; settings: 1 hour
Description: as §1
FIGS. 8A and 8C show a light image (FIG. 8A) and a fluorescent image (FIG. 8C) of murine melanoma cells B16F10 incubated in vitro with Cy5.5-2DG for one hour at 37° C. […] FIGS. 8B and 8D show a light image (FIG. 8B) and a fluorescent image (FIG. 8D) of the same type of cells incubated in vitro with Cy5.5-2DG for one hour at 4° C.

[10] = 500 pmol i.v., lateral position

## CC[N+]1=C(C=CC=CC=C2N(CCCCCC(=O)NC3C(O)OC(CO)C(O)C3O)c3ccc4c(S(=O)(=O)[O-])cc(S(=O)(=O)O)cc4c3C2(C)C)C(C)(C)c2c1ccc1c(S(=O)(=O)[O-])cc(S(=O)(=O)O)cc21.[K+] (stereo not shown) [Cy5.5-2DG]
[1]
  stability in mouse serum: stable
[2]; 4° C.
  uptake of the fluorescent compound by the cells: lack of fluorescing cells
[2]; 37° C.
  uptake of the fluorescent compound by the cells: considerably more uptake
[3]; 50 pmol i.v., lateral position
  ratio of fluorescence intensity of tumor tissue to healthy tissue: about two
  time after injection at which accumulation in the tumor is apparent: 1 h
[3]; 50 pmol i.v., prone position
  time after injection at which preferential accumulation in the tumor is apparent: 30 min
  time to maximum fluorescence intensity: ≤ 30 min
[3]; 50 pmol i.v., prone position, 30 minutes after injection
  ratio of fluorescence intensity of tumor tissue to healthy tissue: 1.5
[3]; 50 pmol i.v., prone position, by about 10 hours after injection
  ratio of fluorescence intensity of tumor tissue to healthy tissue: more than two
[3]; [10]
  latest time point with fluorescence of the tumor tissue observed: 94 h
  time by which compound has cleared from the tumor (tumor no longer visible): ≤ 114 h
  time post injection at which localization in the tumor is apparent in the image: two
[3]; 500 pmol i.v., lateral position, by about five hours post injection
  ratio of fluorescence intensity of tumor tissue to healthy tissue: two
[3]; 500 pmol i.v., lateral position, up to 100 hours post injection
  ratio of fluorescence intensity of tumor tissue to healthy tissue: around two
[3]; 500 pmol i.v., prone position
  time post injection at which accumulation in the tumor is apparent in the image: two
[3]; 500 pmol i.v., prone position, 120 hours post injection
  ratio of fluorescence intensity of tumor tissue to healthy tissue (average radiance): 1.5
[3]; 500 pmol i.v., prone position, about 4 hours post-injection
  ratio of fluorescence intensity of tumor tissue to healthy tissue (average radiance): 1.5
[3]; 500 pmol i.v., prone position, about 18 hours post injection
  ratio of fluorescence intensity of tumor tissue to healthy tissue (average radiance): two
[3]; 500 pmol, 45 hours post injection
  ex vivo fluorescence of dissected tumor versus major tissues and organs: highest fluorescence intensity among the tissues imaged
[3]; after single administration
  retention in the tumor: up to 100 hours
[4]; 500 pmol i.v., 3, 24 and 48 hours post-injection
  fluorescence of tumor tissue: continued preferential fluorescence of tumor tissue
[4]; 500 pmol i.v., 2 hours post-injection
  localization in the tumor: localization of the compound in the tumor is apparent
[5]; 4° C.
  uptake into the cells: took up little, if any, of the compound
[5]; 37° C.
  uptake into the cells: distinct fluorescing cells visible
[6]; 4° C.
  uptake into the tumor cells: little of the compound
[6]; 37° C.
  uptake into the tumor cells: resulted in uptake
[7]; 4° C.
  uptake into the cells: no apparent fluorescence
[7]; 37° C.
  uptake into the cells: took in the compound
[8]
  UV absorption wavelength: about 675 nm
  fluorescent emission wavelength: about 694 nm
[9]; 4° C.
  uptake into the cells: Little, if any
[9]; 37° C.
  uptake into the cells: Uptake of the compound into the cells is apparent

## CCN1\C(=C/C=C/C=C/C2=[N+](CCCCCC(=O)O)c3ccc4c(S(=O)(=O)O)cc(S(=O)(=O)O)cc4c3C2(C)C)C(C)(C)c2c1ccc1c(S(=O)(=O)[O-])cc(S(=O)(=O)O)cc21 [Cy5.5® dye, reference compound]
[8]
  UV absorption wavelength: about 675 nm
  fluorescent emission wavelength: about 694 nm
